For 20 molecules, Bliss interaction score results are on record in the supplement of paper PMC10627819.

Holding throughout (assay): Bliss interaction score (quartile over a dose matrix) (fitness difference); higher = more antagonism (negative = synergy)
Assay [1] relates to S. aureus DSM 20231. Summed up: (§1)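 Values were capped at 1 after dividing OD595 at stationary-phase entry by the plate's robust no-drug mean. This ratio is fitness, and single-drug fitness was inferred from the combination data. The Bliss score is observed minus product-expected fitness, given as quartiles over technical, biological and donor/recipient replicates.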
For assay [2], the system named is S. aureus Newman. The method, boiled down: as §1
For assay [3], the system named is B. subtilis 168. The method, boiled down:
as §1

Assay [4] relates to S. pneumoniae D39V. Summed up:
as §1
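Also: first quartile when negative (synergy) and third quartile when positive (antagonism).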

Turning to `O=C(O)c1cn(C2CC2)c2cc(N3CCNCC3)c(F)cc2c1=O` [Ciprofloxacin] + CO[C@@]12[C@H](COC(N)=O)C3=C(C(=O)C(C)=C(N)C3=O)N1C[C@@H]1N[C@@H]12 [MitomycinC], the Bliss interaction score in assay [1] is -0.057; in assay [2] it was 0.0577; in assay [3], -0.108; in assay [4], -0.111.

As to `O=C(O)c1cn(C2CC2)c2cc(N3CCNCC3)c(F)cc2c1=O` [Ciprofloxacin] + N[C@@H]1CONC1=O [CycloserineD], the Bliss interaction score is -0.0461 in assay [1], -0.105 in assay [2], -0.0971 in assay [3] and 0.0695 in assay [4].

In the case of `O=C(O)c1cn(C2CC2)c2cc(N3CCNCC3)c(F)cc2c1=O` [Ciprofloxacin] + O=C(O)[C@H]1/C(=C/CO)O[C@@H]2CC(=O)N21 [Clavulanic], the Bliss interaction score was -0.184 in assay [1], 0.18 in assay [2], -0.154 in assay [3] and -0.0997 in assay [4].

With `O=C(O)c1cn(C2CC2)c2cc(N3CCNCC3)c(F)cc2c1=O` [Ciprofloxacin] + Oc1cc(Cl)ccc1Oc1ccc(Cl)cc1Cl [Triclosan], the Bliss interaction score is 0.0355 in assay [1], -0.0217 in assay [2], -0.0391 in assay [3] and 0.0508 in assay [4].

On to `CN(C)[C@@H]1C(O)=C(C(N)=O)C(=O)[C@@]2(O)C(O)=C3C(=O)c4c(O)ccc(Cl)c4[C@@](C)(O)[C@H]3C[C@@H]12` [Clortetracycline] + C/C(=C\C(=O)OCCCCCCCCC(=O)O)C[C@@H]1OC[C@H](C[C@@H]2O[C@H]2[C@@H](C)[C@H](C)O)[C@@H](O)[C@H]1O [Pseudomonic acid], for which the Bliss interaction score is 0.0276 in assay [1], 0.0209 in assay [2], -0.0689 in assay [3] and 0.0729 in assay [4].

As for `CN(C)[C@@H]1C(O)=C(C(N)=O)C(=O)[C@@]2(O)C(O)=C3C(=O)c4c(O)ccc(Cl)c4[C@@](C)(O)[C@H]3C[C@@H]12` [Clortetracycline] + CC1(C)S[C@@H]2[C@H](NC(=O)Cc3ccccc3)C(=O)N2[C@H]1C(=O)O [PenicillinG], the Bliss interaction score in assay [1] was 0.0499; in assay [2], -0.0614; in assay [3] it was 0.123; in assay [4], -0.0336.

For `CN(C)[C@@H]1C(O)=C(C(N)=O)C(=O)[C@@]2(O)C(O)=C3C(=O)c4c(O)ccc(Cl)c4[C@@](C)(O)[C@H]3C[C@@H]12` [Clortetracycline] + CC1=C\[C@@H](O)CC(=O)Cc2nc(co2)C(=O)N2CCC=C2C(=O)O[C@H](C(C)C)[C@H](C)/C=C/C(=O)NC\C=C\1 [Virginiamycin M1], the Bliss interaction score in assay [1] is -0.0704; in assay [2], -0.049; in assay [3], 0.0837; in assay [4] it was -0.0413.

`CN(C)[C@@H]1C(O)=C(C(N)=O)C(=O)[C@@]2(O)C(O)=C3C(=O)c4c(O)ccc(Cl)c4[C@@](C)(O)[C@H]3C[C@@H]12` [Clortetracycline] + CC(=O)NC[C@H]1CN(c2ccc(N3CCOCC3)c(F)c2)C(=O)O1 [Linezolid]: the Bliss interaction score is -0.0326 in assay [1], -0.0457 in assay [2], -0.259 in assay [3] and -0.0813 in assay [4].

As to `CN(C)[C@@H]1C(O)=C(C(N)=O)C(=O)[C@@]2(O)C(O)=C3C(=O)c4c(O)ccc(Cl)c4[C@@](C)(O)[C@H]3C[C@@H]12` [Clortetracycline] + CC(=O)O[C@H]1C[C@@]2(C)[C@@H](C[C@@H](O)[C@H]3[C@@]4(C)CC[C@@H](O)[C@@H](C)[C@@H]4CC[C@@]32C)/C1=C(\CCC=C(C)C)C(=O)O [Fusidic acid], the Bliss interaction score is 0.026 in assay [1], 0.0488 in assay [2], -0.11 in assay [3] and -0.0508 in assay [4].

On to `CN(C)[C@@H]1C(O)=C(C(N)=O)C(=O)[C@@]2(O)C(O)=C3C(=O)c4c(O)ccc(Cl)c4[C@@](C)(O)[C@H]3C[C@@H]12` [Clortetracycline] + CC(C1CCC(C(O1)OC2C(CC(C(C2O)OC3C(C(C(CO3)(C)O)NC)O)N)N)N)NC [Gentamicin], for which the Bliss interaction score in assay [1] (main component drawn) is 0.0919; in assay [2] (main component drawn) it was 0.141; in assay [3] (main component drawn) it was 0.181; in assay [4] (main component drawn), -0.183.

On to `CN(C)[C@@H]1C(O)=C(C(N)=O)C(=O)[C@@]2(O)C(O)=C3C(=O)c4c(O)ccc(Cl)c4[C@@](C)(O)[C@H]3C[C@@H]12` [Clortetracycline] + CCC(C)C1C(=O)NC(=C)C(=O)NC(C(=O)NC(CSCC(C(=O)N1)NC(=O)/C(=C/C)/NC(=O)C(C(C)CC)N)C(=O)NC2C(SCC(NC(=O)CNC(=O)C3CCCN3C2=O)C(=O)NC(CCCCN)C(=O)NC4C(SCC(NC(=O)CNC(=O)C(NC(=O)C(NC(=O)C(NC(=O)CNC4=O)C)CC(C)C)CCSC)C(=O)NC(CC(=O)N)C(=O)NC(CCSC)C(=O)NC(CCCCN)C(=O)NC5C(SCC6C(=O)NC(C(=O)NC(CSC(C(C(=O)N6)NC(=O)C(NC5=O)C)C)C(=O)NC(CO)C(=O)NC(C(C)CC)C(=O)NC(CC7=CN=CN7)C(=O)NC(C(C)C)C(=O)NC(=C)C(=O)NC(CCCCN)C(=O)O)CC8=CN=CN8)C)C)C)CC(C)C [Nisin], for which the Bliss interaction score in assay [1] (main component drawn) is 0.0616; in assay [2] (main component drawn) it was 0.0486; in assay [3] (main component drawn), 0.0718; in assay [4] (main component drawn), -0.122.

For the molecule `CN(C)[C@@H]1C(O)=C(C(N)=O)C(=O)[C@@]2(O)C(O)=C3C(=O)c4c(O)ccc(Cl)c4[C@@](C)(O)[C@H]3C[C@@H]12` [Clortetracycline] + CCCCCCCCCC(=O)N[C@@H]1[C@H]([C@@H]([C@H](O[C@H]1OC2=C3C=C4C=C2OC5=C(C=C(C=C5)[C@H]([C@H]6C(=O)N[C@@H](C7=C(C(=CC(=C7)O)OC8[C@H]([C@H]([C@@H]([C@H](O8)CO)O)O)O)C9=C(C=CC(=C9)[C@H](C(=O)N6)NC(=O)[C@@H]4NC(=O)[C@@H]1C2=CC(=CC(=C2)OC2=C(C=CC(=C2)[C@H](C(=O)N[C@H](CC2=CC(=C(O3)C=C2)Cl)C(=O)N1)N)O)O)O)C(=O)O)O[C@H]1[C@@H]([C@H]([C@@H]([C@H](O1)CO)O)O)NC(=O)C)Cl)CO)O)O [Teicoplanin], the Bliss interaction score was 0.111 in assay [1] (main component drawn), 0.0527 in assay [2] (main component drawn), 0.0958 in assay [3] (main component drawn) and -0.0412 in assay [4] (main component drawn).

As for `CN(C)[C@@H]1C(O)=C(C(N)=O)C(=O)[C@@]2(O)C(O)=C3C(=O)c4c(O)ccc(Cl)c4[C@@](C)(O)[C@H]3C[C@@H]12` [Clortetracycline] + CCC[C@@H]1C[C@@H](C(=O)N[C@@H]([C@H]2O[C@H](SC)[C@H](O)[C@@H](O)[C@H]2O)[C@@H](C)O)N(C)C1 [Lincomycin], the Bliss interaction score is -0.171 in assay [1], -0.144 in assay [2], 0.103 in assay [3] and 0.036 in assay [4].

For the molecule `CN(C)[C@@H]1C(O)=C(C(N)=O)C(=O)[C@@]2(O)C(O)=C3C(=O)c4c(O)ccc(Cl)c4[C@@](C)(O)[C@H]3C[C@@H]12` [Clortetracycline] + CCN(CC)CCOC(=O)c1ccc(N)cc1 [Procaine], the Bliss interaction score is -0.0714 in assay [1], 0.0501 in assay [2], 0.0759 in assay [3] and -0.0498 in assay [4].

As to `CN(C)[C@@H]1C(O)=C(C(N)=O)C(=O)[C@@]2(O)C(O)=C3C(=O)c4c(O)ccc(Cl)c4[C@@](C)(O)[C@H]3C[C@@H]12` [Clortetracycline] + CC[C@H]1OC(=O)[C@H](C)C(=O)[C@H](C)[C@@H](O[C@@H]2O[C@H](C)C[C@H](N(C)C)[C@H]2O)[C@](C)(OC)C[C@@H](C)C(=O)[C@H](C)[C@H]2N(CCCCn3cnc(-c4cccnc4)c3)C(=O)O[C@]12C [Telithromycin], the Bliss interaction score was -0.0731 in assay [1], -0.101 in assay [2], -0.372 in assay [3] and -0.0824 in assay [4].

On to `CN(C)[C@@H]1C(O)=C(C(N)=O)C(=O)[C@@]2(O)C(O)=C3C(=O)c4c(O)ccc(Cl)c4[C@@](C)(O)[C@H]3C[C@@H]12` [Clortetracycline] + CC[C@H]1OC(=O)[C@H](C)[C@@H](O[C@H]2C[C@@](C)(OC)[C@@H](O)[C@H](C)O2)[C@H](C)[C@@H](O[C@@H]2O[C@H](C)C[C@H](N(C)C)[C@H]2O)[C@](C)(O)C[C@@H](C)C(=O)[C@H](C)[C@@H](O)[C@]1(C)O [Erythromycin], for which the Bliss interaction score in assay [1] was -0.118; in assay [2], -0.0583; in assay [3], -0.214; in assay [4], 0.0677.

With `CN(C)[C@@H]1C(O)=C(C(N)=O)C(=O)[C@@]2(O)C(O)=C3C(=O)c4c(O)ccc(Cl)c4[C@@](C)(O)[C@H]3C[C@@H]12` [Clortetracycline] + CN1C2=CC=CC=C2N=C3C1=CC=CC3=O [Pyocyanin], the Bliss interaction score in assay [1] was 0.0397; in assay [2], -0.0515; in assay [3], 0.0851; in assay [4] it was -0.0238.

With `CN(C)[C@@H]1C(O)=C(C(N)=O)C(=O)[C@@]2(O)C(O)=C3C(=O)c4c(O)ccc(Cl)c4[C@@](C)(O)[C@H]3C[C@@H]12` [Clortetracycline] + CN(C)C(=O)C(CCN1CCC(O)(c2ccc(Cl)cc2)CC1)(c1ccccc1)c1ccccc1 [Loperamide], the Bliss interaction score is 0.0792 in assay [1], -0.0458 in assay [2], -0.221 in assay [3] and 0.0856 in assay [4].

In the case of `CN(C)[C@@H]1C(O)=C(C(N)=O)C(=O)[C@@]2(O)C(O)=C3C(=O)c4c(O)ccc(Cl)c4[C@@](C)(O)[C@H]3C[C@@H]12` [Clortetracycline] + CN(C)c1cc(NC(=O)CNC(C)(C)C)c(O)c2c1C[C@H]1C[C@H]3[C@H](N(C)C)C(O)=C(C(N)=O)C(=O)[C@@]3(O)C(O)=C1C2=O [Tigecycline], the Bliss interaction score in assay [1] is -0.14; in assay [2], -0.0522; in assay [3], 0.0768; in assay [4], -0.0325.

Turning to `CN(C)[C@@H]1C(O)=C(C(N)=O)C(=O)[C@@]2(O)C(O)=C3C(=O)c4c(O)ccc(Cl)c4[C@@](C)(O)[C@H]3C[C@@H]12` [Clortetracycline] + CN(N=O)C(=O)N[C@@H](C=O)[C@@H](O)[C@H](O)[C@H](O)CO [Streptozotocin], the Bliss interaction score in assay [1] was 0.0625; in assay [2] it was 0.0347; in assay [3], 0.073; in assay [4], -0.0534.
